Measured values taken from a melting point compilation (Tetko et al.; mined from patent text by program, amines drawn as free bases though some values may be those of a salt).

Row | melting point [°C] | Structure (SMILES)
1 | 121 | OC(Cn1cncn1)(c1ccc(F)cc1)C1(Cl)CC1 (stereo not drawn)
2 | 129 to 130 | NC(=O)CNC(=O)c1cc(-c2cccc3cc(Cc4cc(F)cc(Cl)c4)sc23)ccc1F
3 | 238 to 241 | COc1ncc(-c2cc(N3CCOCC3)nc(-n3c(C(F)F)nc4c(OC)cccc43)n2)cn1
4 | 116 to 117 | CC(C)C(=O)NCCNC(=O)OC(C)(C)C
5 | 226 to 227 | O=C(O)c1ccc(O)c(NC(=O)C(CS)Cc2ccccc2)c1 (stereo not drawn)
6 | 198 to 201 | C(=C\c1cc(/C=C/c2c[nH]c3ccccc23)n[nH]1)/c1cccc(OCc2ccccn2)c1
7 | 48 to 52 | O=C(O)C[C@@H](Cc1ccccc1)C(=O)OCc1ccccc1
8 | 263 to 265 | O=C(O)C1C=Nc2c(cccc2[N+](=O)[O-])C1=O (stereo not drawn)
9 | 215 to 216 | CS(=O)(=O)Nc1cc2occ(Br)c(=O)c2cc1Oc1ccccc1
10 | 237 to 239 | Cc1cnc2c(C(N)=O)cnn2c1-c1cccc(C(F)(F)F)c1
11 | 202 to 203 | Cc1nnc(-c2ccnc(NC(=O)NCc3ccccn3)c2)o1
12 | 206 to 207 | CS(=O)(=O)CC(=O)NCCn1ccc2ncnc(Nc3ccc(Oc4cccc(Cl)c4)c(Cl)c3)c21
13 | 71 to 73 | COc1c(C#N)c(C)cc2c1C(C)(C)CCC2(C)C
14 | 182 to 183 | CC(C)c1cc(C(C)C)c(CC(=O)NS(=O)(=O)Oc2c(C(C)C)cc(O)cc2C(C)C)c(C(C)C)c1
15 | 120 to 135 | CC(C)(CO)C(O)(Cn1cncn1)c1ccc(Cl)cc1 (stereo not drawn)
16 | > 260 | O=C(O)c1nn(Cc2ccc(Cl)cc2Cl)c2c1Cc1cc(Cl)ccc1-2
17 | 114 to 116 | CCC(CC)(CC(=O)Nc1cccc(/C=C/c2cccc(COCCCCc3ccc(C)cc3)n2)c1)C(=O)O
18 | 82 to 83 | CON(C)C(=O)Nc1ccc(OCCc2ccc(C)cc2)cc1
19 | 146 to 148 | CCCCCCCCCCCCCCCC(=O)Nc1cc([N+](=O)[O-])ccc1O
20 | 75 to 75.5 | CCCOc1cccc(CO)c1I
21 | > 260 | Nc1nc(O)c2c(n1)NCC(CCc1cc(C(=O)O)c[nH]1)C2 (stereo not drawn)
22 | 150 to 151 | CCn1nc(Cc2c(Cl)cncc2Cl)c2ccc(OC)cc2c1=O
23 | 145 to 147 | CCn1nc(C)c2c1C1=NC(C)CN1C(C)=N2 (stereo not drawn)
24 | 171 to 173 | COc1ccc(C(=O)O)cc1OC1CC=CC1

Row | melting point [°C] | Structure (SMILES)
25 | 336 to 338 | COc1cc2c(=O)c(-c3ccc(O)cc3)coc2cc1O
26 | 144 | O=Cc1ccc(O)c(C=O)n1
27 | 174 to 176 | CCOC(=O)c1c2n(c3c(F)c(N4CCC(NC(=O)OC(C)(C)C)C4)c(F)cc3c1=O)C(C)S2 (stereo not drawn)
28 | 87 to 89 | OCCCc1cc(Cl)cc2nc(Cc3cccc(Cl)c3)oc12
29 | 154 to 157 | COCCNC(=O)c1ccc(C(=O)NS(=O)(=O)c2ccc(CCNC(=O)CCC(C)C)cc2)cn1
30 | 107 to 110 | CS(=O)(=O)c1ccc(C(CC2CCCC2)C(=O)Nc2ccccn2)cc1S(C)(=O)=O (stereo not drawn)
31 | 145 | O=CC1CC(O)c2ccccc2C1O (stereo not drawn)
32 | 140 to 142 | COc1ccc(COc2c(OC)ccc3c2CC(C(=O)O)N(C(=O)C(c2ccccc2)c2ccccc2)C3)cc1C (racemic)
33 | 111 to 113 | CN(CCN(O)C(N)=O)Cc1cccc(Oc2ccc(Cl)cc2)c1
34 | 95 to 96 | CCOC(=O)NNC(=O)NCCCC(=O)OC
35 | 88 | CCCCCCCCCCCCCCCCCCC(CO)CO
36 | 78 to 79 | Oc1ccc([C@@H]2C[C@H]2c2ccccc2)cc1 (relative stereo)
37 | 233 to 235 | O=c1[nH]c2cccnc2n1-c1ccccc1
38 | 230 to 233 | COc1ccc(-n2c(-c3cccnc3)nc(SC)c(C#N)c2=O)cc1
39 | 134 to 136 | COC(=O)/C=C/C#Cc1cccc(S(=O)(=O)Nc2ccccc2)c1
40 | 166 to 169 | CCOC(=O)c1cnc2c(c(C)nn2-c2ccccn2)c1O
41 | 119 | Cc1cc2ncc(-c3cccc(-c4ccccc4C#N)c3)n2cn1
42 | 108 to 109 | Cn1ncc2c(c1=O)SCCNC2Cc1ccccc1 (stereo not drawn)
43 | 170 | CN1CCN(c2cc(NC(=O)OC(C)(C)C)c([N+](=O)[O-])cc2C#Cc2ccccc2)CC1
44 | 164 | Cc1cnc2c(c1)CCCC2(C)C(N)=S (stereo not drawn)
45 | 168 to 169 | COc1ccc(NN=C2CCC3(CC2)OCCO3)cc1
46 | 46 to 47 | O=C(NCCSCc1cccc(NC(=O)C2CC2)c1)c1c(Cl)cccc1Cl
47 | 203 to 204 | Cc1cc(NC(=O)Cc2ccccc2C(F)(F)F)cc(C)c1S(=O)(=O)C[N+](=O)[O-]
48 | 105 to 107 | O=CN1CCN=C1CC(c1ccccc1)c1ccccc1

Row | melting point [°C] | Structure (SMILES)
49 | 254 to 255 | CN(C)c1ccc2nc(-c3cccc4ccccc34)[nH]c(=O)c2c1
50 | 98 to 102 | Cc1cc(-n2cnc(CO)c2)ccc1C(C)C
51 | 67 to 74 | COc1cc(C2CCN(C[C@@H](C)O)CC2)ccc1Nc1ncc2ccc(-c3ccccc3OC)n2n1
52 | 120 to 122 | CC(C)(C)OC(=O)Nc1ccc(C#Cc2ccccc2Cl)cc1N
53 | 178 to 180 | CCN1c2ncc(C#Cc3cccnc3)cc2C(=O)N(C)c2cccnc21
54 | 176 to 178 | O=C1N(Cc2ncccc2Cl)c2ccccc2C12COc1cc3c(cc12)OCCO3 (stereo not drawn)
55 | 216 to 218 | CC1CCc2c(N3CCN(Cc4ccc(N)cc4)CC3)c(F)cc3c(=O)c(C(=O)O)cn1c23 (stereo not drawn)
56 | 205 to 210 | CNC(=O)C(Cc1c[nH]c2ccccc12)NC(=O)Nc1n[nH]c(=S)s1 (stereo not drawn)
57 | 190 to 192 | COc1nc2cccnc2n1-c1ccc(-c2nc(-c3nccs3)cn2-c2ccc(C)nc2)cc1
58 | 112 to 116 | O=C(NCCc1ccccc1)[C@@H]1Cc2ccccc2N1
59 | 124 to 132 | COCCOc1cc2ncnc(NC3=CC(=O)C(Oc4ccc(-n5ccnc5)cc4)=CC3=O)c2cc1OC
60 | 115 to 117 | O=C(NCCCc1ccc(CCl)cc1)c1ccc(-c2ccccn2)cc1
61 | 144 to 145 | CNc1scc(C)c1C(=O)c1ccccc1
62 | 229 to 231 | COc1ccc(-c2cnn3cc(C(=O)O)cnc23)cc1OC
63 | 150 to 151 | Cc1ccc2c(c1)C=C(c1ccc(OCCN3CCCC3)cc1)S2=O (stereo not drawn)
64 | 238 to 240 | CC1CC2C3CCC4=CC(=O)C=CC4(C)C34OC4CC2(C)C1(O)C(=O)CO (stereo not drawn)
65 | 114 to 116 | O=C1COc2cc(S(=O)(=O)c3ccccc3)ccc2N1CC1=NCCN1
66 | 136 to 139 | COc1ccc2c(c1)C(N=Cc1ccc(O)c(OC)c1)CCO2 (stereo not drawn)
67 | 235 to 236 | Oc1ccccc1C=Cc1nc2ccccc2s1
68 | 109 to 114 | O=c1c(OC(F)F)cn(-c2ccccc2F)nc1-c1ccnn1-c1ccccc1
69 | 128 to 130 | CCCNC(=O)Nc1nc(-c2cc(C)cc(C)c2)c(-c2ccncc2)s1
70 | 212 | CC(C)(C)NCC(O)COc1ccc(C(=O)Nc2cccc3[nH]ccc23)cc1 (stereo not drawn)
71 | 149 to 155 | COC(=O)C1CCC2C3CCC4CC(OC(=O)CCl)CCC4(C)C3C(OC(=O)CCl)CC12C (stereo not drawn)

Row | Structure (SMILES) | melting point [°C]
72 | O=c1[nH]c2cc(NO)ccc2c(=O)n1CCCCN1CC=C(c2ccccc2)CC1 | 187 to 189
73 | Cc1cc(COP(N)(=O)N(CCCl)CCCl)ccc1[N+](=O)[O-] (stereo not drawn) | 64 to 66
